From patent publication US11667651B2, “Aminopyridine derivatives as phosphatidylinositol phosphate kinase inhibitors” (HiberCell, Inc., priority 2017, dated 2023)

Assays:
Assay type in all cases: biochemical
[1] = target: T1, PIP4K2A (Homo sapiens, UniProt P48426); assay: Kinase Assay PIP4K2 A (Table 2); design: 4 nM PIP4K2A (full length protein, SignalChem); purchased SignalChem; conditions: compounds listed under IC50 bins
T1 sequence (P48426 1-406): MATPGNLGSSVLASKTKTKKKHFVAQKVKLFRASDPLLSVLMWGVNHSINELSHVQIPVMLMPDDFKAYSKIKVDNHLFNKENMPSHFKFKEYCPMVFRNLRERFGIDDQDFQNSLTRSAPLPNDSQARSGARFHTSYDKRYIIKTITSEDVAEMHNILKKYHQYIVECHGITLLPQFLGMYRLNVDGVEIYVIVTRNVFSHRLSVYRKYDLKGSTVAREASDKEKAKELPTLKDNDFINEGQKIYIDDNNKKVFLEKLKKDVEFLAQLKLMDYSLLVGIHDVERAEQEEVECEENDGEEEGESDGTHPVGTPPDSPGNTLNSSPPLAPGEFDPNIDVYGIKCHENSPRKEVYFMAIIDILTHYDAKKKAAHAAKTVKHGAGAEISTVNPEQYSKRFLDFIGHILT
Method in brief: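 ADP-Glo luminescent read-out after 1 h room-temperature kinase reaction, started with 60 μM ATP solution following 15 min compound pre-incubation. Enzyme/substrate mix: 4 nM full-length PIP4K2A plus 100 μM PI(5)P diC8; buffer MOPS pH 7.2 with 25 mM MgCl2 and Tween 20. IC50 from 10-point, 3-fold titrations normalized to DMSO.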

[2] = target: T1, PIP4K2A; assay: ADP-glo kinase assay PIP4K 2A (Table 3); design: made in house; host or cells: E. coli; conditions: compounds listed under IC50 bins
Method in brief: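 ADP-Glo luminescence detected ADP after 1 h RT reaction started by ATP (60 μM solution) on full-length PIP4K2A (4 nM in mix) and PI(5)P diC8 (100 μM in mix), preceded by 15 min enzyme-compound preincubation in MOPS pH 7.2/25 mM MgCl2. Percent inhibition versus DMSO over 10 concentrations fitted for IC50.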

[3] = target: T2, PIP4K2B (Homo sapiens, UniProt P78356); assay: Trans-FI P kinase assay PIP4K2B (Table 4); conditions: compounds listed under IC50 bins; read-out: Trans-FI P kinase assays: PIP4K2B IC50
T2 construct: made in house; host or cells: E. coli
T2 sequence (P78356 1-416): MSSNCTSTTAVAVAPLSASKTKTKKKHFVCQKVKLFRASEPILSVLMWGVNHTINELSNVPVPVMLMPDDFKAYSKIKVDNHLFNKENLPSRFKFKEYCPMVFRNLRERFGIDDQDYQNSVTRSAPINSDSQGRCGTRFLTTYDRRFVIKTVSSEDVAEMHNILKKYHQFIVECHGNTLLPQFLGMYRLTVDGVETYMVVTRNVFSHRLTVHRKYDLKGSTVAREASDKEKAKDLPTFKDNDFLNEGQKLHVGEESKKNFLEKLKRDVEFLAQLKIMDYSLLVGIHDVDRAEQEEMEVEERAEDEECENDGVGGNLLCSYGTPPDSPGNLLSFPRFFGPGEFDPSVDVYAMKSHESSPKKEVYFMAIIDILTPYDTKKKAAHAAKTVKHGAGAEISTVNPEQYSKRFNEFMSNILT
Method in brief: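 Transcreener FI detection (Ex 584/Em 623) of GDP, converted via calibration curve, gives IC50 from residual activity versus log concentration (highest 4.8 μM). Reaction: 80 μM PI5P plus DOPE carrier, 100 μM GTP, 5 nM GST-tagged enzyme, pH 7.3 HEPES with MgCl2 and 5% DMSO, 2 h after 1 h enzyme-compound preincubation at 27° C.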

SMILES | IC50 [1] [nM] | IC50 [2] [nM] | IC50 [3] [nM]
O=C(c1cccc2ncc(Nc3ccc(-c4ccc(N5CCCC5=O)cc4)cn3)cc12)N1CCCC1 [Example 148, 1-(4-(6-((5-(pyrrolidine-1-carbonyl)quinolin-3-yl)amino)pyridin-3-yl)phenyl)pyrrolidin-2-one] | 100 to 1000 | > 1000 | > 1000
O=C(c1cccc2ncc(Nc3ccc(-c4ccc(N5CCCC5=O)cc4)cn3)cc12)N1CCC(O)C1 (stereo not drawn) [Example 149, 1-(4-(6-((5-(3-hydroxypyrrolidine-1-carbonyl)quinolin-3-yl)amino)pyridin-3-yl)phenyl)pyrrolidin-2-one] | 100 to 1000 | > 1000 | > 1000
O=C1CCCN1c1ccc(-c2ccc(Nc3cnc4c(c3)N(C(=O)C3CC3)CCO4)nc2)cc1 [Example 150, 1-(4-(6-((1-(cyclopropanecarbonyl)-2,3-dihydro-1H-pyrido[2,3-b][1,4]oxazin-7-yl)amino)pyridin-3-yl)phenyl)pyrrolidin-2-one] | 1 to 10 | 1 to 10 | 10 to 100
COC(=O)N1CCOc2ncc(Nc3ccc(-c4ccc(N5CCCC5=O)cc4)cn3)cc21 [Example 151, methyl 7-((5-(4-(2-oxopyrrolidin-1-yl)phenyl)pyridin-2-yl)amino)-2,3-dihydro-1H-pyrido[2,3-b][1,4]oxazine-1-carboxylate] | 1 to 10 | 1 to 10 | 10 to 100
CC(C)C(=O)N1CCOc2ncc(Nc3ccc(-c4ccc(N5CCCC5=O)cc4)cn3)cc21 [Example 152, 1-(4-(6-((1-isobutyryl-2,3-dihydro-1H-pyrido[2,3-b][1,4]oxazin-7-yl)amino)pyridin-3-yl)phenyl)pyrrolidin-2-one] | 1 to 10 | 10 to 100 | 10 to 100
CC(C)S(=O)(=O)N1CCOc2ncc(Nc3ccc(-c4ccc(N5CCCC5=O)cc4)cn3)cc21 [Example 153, 1-(4-(6-((1-(isopropylsulfonyl)-2,3-dihydro-1H-pyrido[2,3-b][1,4]oxazin-7-yl)amino)pyridin-3-yl)phenyl)pyrrolidin-2-one] | 10 to 100 | 100 to 1000 | 10 to 100
O=C1CCCN1c1ccc(-c2ccc(Nc3cnc4c(c3)N(S(=O)(=O)C3CC3)CCO4)nc2)cc1 [Example 154, 1-(4-(6-((1-(cyclopropylsulfonyl)-2,3-dihydro-1H-pyrido[2,3-b][1,4]oxazin-7-yl)amino)pyridin-3-yl)phenyl)pyrrolidin-2-one] | 10 to 100 | 10 to 100 | 10 to 100
CC(C)(C)C(=O)N1CCOc2ncc(Nc3ccc(-c4ccc(N5CCCC5=O)cc4)cn3)cc21 [Example 155, 1-(4-(6-((1-pivaloyl-2,3-dihydro-1H-pyrido[2,3-b][1,4]oxazin-7-yl)amino)pyridin-3-yl)phenyl)pyrrolidin-2-one] | 1 to 10 | 1 to 10 | 10 to 100
CS(=O)(=O)N1CCOc2ncc(Nc3ccc(-c4ccc(N5CCCC5=O)cc4)cn3)cc21 [Example 156, 1-(4-(6-((1-(methylsulfonyl)-2,3-dihydro-1H-pyrido[2,3-b][1,4]oxazin-7-yl)amino)pyridin-3-yl)phenyl)pyrrolidin-2-one] | 1 to 10 | 10 to 100 | 10 to 100
CN(c1cncc(Nc2ccc(-c3ccc(N4CCCC4=O)cc3)cn2)c1)S(C)(=O)=O [Example 157, N-methyl-N-(5-((5-(4-(2-oxopyrrolidin-1-yl)phenyl)pyridin-2-yl)amino)pyridin-3-yl)methanesulfonamide] | 10 to 100 | 10 to 100 | 10 to 100
COc1ncc(Nc2ccc(-c3ccc(N4CCCC4=O)cc3)cn2)cc1NC(C)=O [Example 158, N-(2-methoxy-5-((5-(4-(2-oxopyrrolidin-1-yl)phenyl)pyridin-2-yl)amino)pyridin-3-yl)acetamide] | 100 to 1000 | 100 to 1000 | 10 to 100
COc1ncc(Nc2ccc(-c3ccc(N4CCCC4=O)cc3)cn2)cc1NS(C)(=O)=O [Example 159, N-(2-methoxy-5-((5-(4-(2-oxopyrrolidin-1-yl)phenyl)pyridin-2-yl)amino)pyridin-3-yl)methanesulfonamide] | 10 to 100 | 100 to 1000 | 10 to 100
COc1ncc(Nc2ccc(-c3ccc(N4CCCC4=O)cc3)cn2)cc1N(C)C(C)=O [Example 160, N-(2-methoxy-5-((5-(4-(2-oxopyrrolidin-1-yl)phenyl)pyridin-2-yl)amino)pyridin-3-yl)-N-methylacetamide] | > 1000 | > 1000 | > 1000
COc1ncc(Nc2ccc(-c3ccc(N4CCCC4=O)cc3)cn2)cc1N(C)S(C)(=O)=O [Example 161, N-(2-methoxy-5-((5-(4-(2-oxopyrrolidin-1-yl)phenyl)pyridin-2-yl)amino)pyridin-3-yl)-N-methylmethanesulfonamide] | 100 to 1000 | 100 to 1000 | 10 to 100
O=C1CCCN1c1ccc(-c2cnc(Nc3cnc4c(c3)N3C(=O)CC[C@H]3CO4)cn2)cc1 [Example 162, (S)-2-((5-(4-(2-oxopyrrolidin-1-yl)phenyl)pyrazin-2-yl)amino)-6,6a,7,8-tetrahydro-9H-pyrido[2,3-b]pyrrolo[1,2-d][1,4]oxazin-9-one] | 10 to 100 | 10 to 100 | 10 to 100
O=C1CCCN1c1ccc(-c2ccc(Nc3cncc(N4CCN(Cc5cscn5)C4=O)c3)nc2)cc1 [Example 163, 1-(5-((5-(4-(2-oxopyrrolidin-1-yl)phenyl)pyridin-2-yl)amino)pyridin-3-yl)-3-(thiazol-4-ylmethyl)imidazolidin-2-one] | 1 to 10 | 1 to 10 | 10 to 100
O=C1CCCN1c1ccc(-c2cnc(Nc3cncc(N4CCN(Cc5cscn5)C4=O)c3)cn2)cc1 [Example 164, 1-(5-((5-(4-(2-oxopyrrolidin-1-yl)phenyl)pyrazin-2-yl)amino)pyridin-3-yl)-3-(thiazol-4-ylmethyl)imidazolidin-2-one] | 1 to 10 | 1 to 10 | 10 to 100
O=C1CCCN1c1ccc(-c2ccc(Nc3cncc(N4CCN(Cc5cocn5)C4=O)c3)nc2)cc1 [Example 165, 1-(oxazol-4-ylmethyl)-3-(5-((5-(4-(2-oxopyrrolidin-1-yl)phenyl)pyridin-2-yl)amino)pyridin-3-yl)imidazolidin-2-one] | 10 to 100 | 10 to 100 | 10 to 100
O=C1CCCN1c1ccc(-c2ccc(Nc3cncc(N4CCN(Cc5cnco5)C4=O)c3)nc2)cc1 [Example 166, 1-(oxazol-5-ylmethyl)-3-(5-((5-(4-(2-oxopyrrolidin-1-yl)phenyl)pyridin-2-yl)amino)pyridin-3-yl)imidazolidin-2-one] | 10 to 100 | 10 to 100 | 10 to 100
CN1CCN(c2cncc(Nc3ccc(-c4ccc(N5CCCC5=O)cc4)cn3)c2)S1(=O)=O [Example 174, 1-(4-(6-((5-(5-methyl-1,1-dioxido-1,2,5-thiadiazolidin-2-yl)pyridin-3-yl)amino)pyridin-3-yl)phenyl)pyrrolidin-2-one] | 1 to 10 | 10 to 100 | 10 to 100
CC(C)c1cc(Nc2cnc3c(c2)N2C(=O)CC[C@H]2CO3)ncc1-c1ccc(N2CCCC2=O)cc1 [Example 177, (S)-2-((4-isopropyl-5-(4-(2-oxopyrrolidin-1-yl)phenyl)pyridin-2-yl)amino)-6,6a,7,8-tetrahydro-9H-pyrido[2,3-b]pyrrolo[1,2-d][1,4]oxazin-9-one] | ≤ 1 | 1 to 10 | 1 to 10
